# Reference: US11192921B2 (priority 2017, dated 2021)
# Where “and” joins values, the source holds several entries; their conditions need not be identical. Equal values may be shown once. Read-outs that look alike come from different tables or passages of the source. Marks after values point to notes of the source that are not given here. No end group written: not given here.
# How the values were obtained:
# SD rats = assay: pain threshold of trigeminal nerve (trigeminal neuralgia model); assay type: in vivo; settings: for highest pain threshold on the operative side / pain threshold on the opposite side: 3 h after injection; for Pain threshold: intraperitoneal
# Kunming mice [1] = settings: mouse, in vivo
# Kunming mice [2] = assay type: in vivo
# male BALB/c mice [3] = assay: cancer-induced pain (CIP) model, thermosensitive test; assay type: in vivo; settings: heat radiation stimulation
# Method: Influence of Analgesic Polypeptides on Neuralgia in a Cancer-Induced Pain (CIP) Model
# A number of male BALB/c mice each weighing 25-30 g were used.
# Von Fery monofilament; a microsyringe, 5 mg/mL solutions of polypeptides I, II and II I; normal saline.
# (§1) BALB/c mice were taken, and the right sciatic nerve was exposed; ascites containing 5×10^4 Meth A sarcoma cells were injected into the proximal nerve near the sciatic nerve trochanter far from the tendon branch of the posterior biceps, the wound was closed, and the same volume of normal saline was injected into the left side by performing a sham operation.
# 1.3.1 Thermosensitive Test
# On the 4th, 7th, 10th and 14th days after inoculation, the latency of foot lifting caused by heat radiation stimulation to animals was observed, and the heat radiation intensity was adjusted to cause the latency of foot lifting of normal mice to be (10±2) s.
# All data was expressed as M±SD and subjected to one-way ANOVA.
# Female Kunming mice [4] = test system: Female Kunming mice
# Female Kunming mice [5] = test system: Female Kunming mice; remark: listed apart in the source
# Female Kunming mice [6] = assay type: in vivo
# male BALB/c mice [7] = assay: cancer-induced pain (CIP) model, gross behavior; assay type: in vivo; settings: 14th day after inoculation
# Method: as §1
# On the 4th, 7th, 10th and 14th days after inoculation, spontaneous pain and foot drop and the like occurred before the occurrence of thermal sensitivity and mechanical pain sensitivity behaviors, […]
# Female Kunming mice [8] = test system: Female Kunming mice; remark: listed apart in the source
# [9] = 50 μg/kg, injected subcutaneously
# [10] = 100 μg/kg, injected subcutaneously
sequence,measurement,setting,value
GSCSTPPSAVLYC (cysteine pairing not given here) [Polypeptide II],animal reaction thresholds,"SD rats; 50 μg/kg and 100 μg/kg, injected subcutaneously",significantly increased
same,time the pain thresholds lasted,SD rats; [9],1 h
same,highest pain threshold on the operative side,SD rats; [9],2.3 ± 0.5 g
same,pain threshold on the opposite side,SD rats; [9],1.2 ± 0.2 g
same,time the effect on the operative side lasted,SD rats; [10],about 8 h
same,highest pain threshold on the operative side,SD rats; [10],7.4 ± 0.9 g
same,pain threshold on the opposite side,SD rats; [10],3.2 ± 1.3 g
same,pain threshold change,"SD rats; 300 μg/kg, subcutaneously",not significantly increased
same,Pain threshold,"SD rats; Dose 50 (μg/kg), 0 h",25.56 ± 0.65 s
same,Pain threshold,"SD rats; Dose 50 (μg/kg), 1 h",25.23 ± 0.44 s
same,Pain threshold,"SD rats; Dose 50 (μg/kg), 2 h",26.62 ± 0.56 s
same,Pain threshold,"SD rats; Dose 50 (μg/kg), 3 h",26.46 ± 0.62 s
same,Pain threshold,"SD rats; Dose 50 (μg/kg), 4 h",27.15 ± 0.56 s
same,Pain threshold,"SD rats; Dose 50 (μg/kg), 5 h",26.62 ± 0.13 s
same,Pain threshold,"SD rats; Dose 100 (μg/kg), 0 h",25.87 ± 0.23 s
same,Pain threshold,"SD rats; Dose 100 (μg/kg), 1 h",26.12 ± 0.62 s
same,Pain threshold,"SD rats; Dose 100 (μg/kg), 2 h",27.16 ± 0.32 s
same,Pain threshold,"SD rats; Dose 100 (μg/kg), 3 h",27.65 ± 0.32 s
same,Pain threshold,"SD rats; Dose 100 (μg/kg), 4 h",26.23 ± 0.62 s
same,Pain threshold,"SD rats; Dose 100 (μg/kg), 5 h",25.13 ± 0.32 s
same,Pain threshold,"SD rats; Dose 300 (μg/kg), 0 h",26.41 ± 0.66 s
same,Pain threshold,"SD rats; Dose 300 (μg/kg), 1 h",30.12 ± 0.56 s
same,Pain threshold,"SD rats; Dose 300 (μg/kg), 2 h",30.61 ± 0.62 s
same,Pain threshold,"SD rats; Dose 300 (μg/kg), 3 h",29.52 ± 0.95 s
same,Pain threshold,"SD rats; Dose 300 (μg/kg), 4 h",28.62 ± 0.61 s
same,Pain threshold,"SD rats; Dose 300 (μg/kg), 5 h",27.92 ± 0.61 s
same,analgesic effects in formalin-induced pain experiments,Kunming mice [1],good analgesic effects
same,"cumulative foot licking time, Phase I",Kunming mice [1],48.20 ± 11.31*^
same,"cumulative foot licking time, Phase II",Kunming mice [1],40.53 ± 14.32
same,Pain threshold (tail flick),Kunming mice [2]; 0 min,2.43 ± 0.21^∧ s
same,Pain threshold (tail flick),Kunming mice [2]; 15 min,2.52 ± 0.24 s
same,Pain threshold (tail flick),Kunming mice [2]; 30 min,2.31 ± 0.36 s
same,Pain threshold (tail flick),Kunming mice [2]; 45 min,2.45 ± 0.12 s
same,Pain threshold (tail flick),Kunming mice [2]; 60 min,2.12 ± 0.41 s
same,Pain threshold (tail flick),Kunming mice [2]; 75 min,2.23 ± 0.14^∧ s
same,Pain threshold (tail flick),Kunming mice [2]; 90 min,2.24 ± 0.12 s
same,Latency of foot lifting before administration,male BALB/c mice [3]; before administration,10.12 ± 1.64
same,Latency (D) of foot lifting after administration,male BALB/c mice [3]; day 4,9.87 ± 0.78
same,Latency (D) of foot lifting after administration,male BALB/c mice [3]; day 7,8.75 ± 0.89
same,Latency (D) of foot lifting after administration,male BALB/c mice [3]; day 10,8.31 ± 0.92
same,Latency (D) of foot lifting after administration,male BALB/c mice [3]; day 14,6.56 ± 0.56
same,Movement duration of mice in forced swimming tests,Female Kunming mice [4]; 1 h,19.47 ± 1.32^ s
same,Movement duration of mice in forced swimming tests,Female Kunming mice [4]; 24 h,19.03 ± 2.48 s
same,Movement duration of mice in forced swimming tests,Female Kunming mice [4]; Time 0,20.98 ± 1.28 s
same,toxic side effects compared with the conotoxin (forced swimming),"Female Kunming mice [4]; mouse, in vivo, ip",lower toxic side effects
same,Movement distances of mice in open field tests,Female Kunming mice [5]; 1 h,19.47 ± 1.32^
same,Movement distances of mice in the center area in open field tests,Female Kunming mice [5]; 1 h,19.47 ± 1.32^
same,Movement distances of mice in the peripheral area in open field tests,Female Kunming mice [5]; 1 h,19.47 ± 1.32^
same,Number of entrances to the center area in open field tests,Female Kunming mice [5]; 1 h,19.47 ± 1.32^
same,Number of entrances to the peripheral area in open field tests,Female Kunming mice [5]; 1 h,19.47 ± 1.32^
same,Residence time in the center area in open field tests,Female Kunming mice [5]; 1 h,19.47 ± 1.32^ s
same,Residence time in the peripheral area in open field tests,Female Kunming mice [5]; 1 h,19.47 ± 1.32^ s
same,Movement distances of mice in open field tests,Female Kunming mice [5]; 24 h,19.03 ± 2.48 m
same,Movement distances of mice in the center area in open field tests,Female Kunming mice [5]; 24 h,19.03 ± 2.48 m
same,Movement distances of mice in the peripheral area in open field tests,Female Kunming mice [5]; 24 h,19.03 ± 2.48 m
same,Number of entrances to the center area in open field tests,Female Kunming mice [5]; 24 h,19.03 ± 2.48
same,Number of entrances to the peripheral area in open field tests,Female Kunming mice [5]; 24 h,19.03 ± 2.48
same,Residence time in the center area in open field tests,Female Kunming mice [5]; 24 h,19.03 ± 2.48 s
same,Residence time in the peripheral area in open field tests,Female Kunming mice [5]; 24 h,19.03 ± 2.48 s
same,Movement distances of mice in open field tests,Female Kunming mice [5]; Time 0,20.98 ± 1.28 m
same,Movement distances of mice in the center area in open field tests,Female Kunming mice [5]; Time 0,20.98 ±1.28 m
same,Movement distances of mice in the peripheral area in open field tests,Female Kunming mice [5]; Time 0,20.98 ± 1.28 m
same,Number of entrances to the center area in open field tests,Female Kunming mice [5]; Time 0,20.98 ± 1.28
same,Number of entrances to the peripheral area in open field tests,Female Kunming mice [5]; Time 0,20.98 ± 1.28
same,Residence time in the center area in open field tests,Female Kunming mice [5]; Time 0,20.98 ± 1.28 s
same,Residence time in the peripheral area in open field tests,Female Kunming mice [5]; Time 0,20.98 ± 1.28 s
same,side effects compared with conotoxin (open field),"Female Kunming mice [5]; mouse, in vivo, ip",lower side effects
same,various indexes in open field experiments compared with the normal saline group,"Female Kunming mice [5]; mouse, in vivo, ip",no significant difference
same,Pain threshold,Female Kunming mice [6]; 0 min,27.43 ± 0.54^∧ s
same,Pain threshold,"Female Kunming mice [6]; mouse, in vivo, ip",42.54 ± 0.24^∧ s and 22.33 ± 0.36 s and 27.45 ± 0.52 s and 31.34 ± 0.45*^∧ s and 25.43 ± 0.54^∧ s and 26.24 ± 0.42 s
same,heat thresholds of mice compared with the normal saline negative control group,"Female Kunming mice [6]; mouse, in vivo, ip",effectively increase the heat thresholds of mice
same,increase of the pain threshold compared with the normal saline group and the conotoxin group,"Female Kunming mice [6]; mouse, in vivo, ip",significantly higher
same,left foot lifting behavior,male BALB/c mice [7],obviously observed
same,Duration of the immobility of mice in tail suspension tests,Female Kunming mice [8]; 1 h,19.47 ± 1.32^ s
same,Duration of the immobility of mice in tail suspension tests,Female Kunming mice [8]; 24 h,19.03 ± 2.48 s
same,Duration of the immobility of mice in tail suspension tests,Female Kunming mice [8]; Time 0,20.98 ± 1.28 s
same,data of tail suspension test compared with the normal saline group,"Female Kunming mice [8]; mouse, in vivo, ip",no significant difference
same,toxic side effects compared with the conotoxin (tail suspension),"Female Kunming mice [8]; mouse, in vivo, ip",lower toxic side effects
